Assays:
Format in all cases: cell-based
[1] = test system: bacterial mix: Escherichia coli DSM 1576, Alcaligenes faecalis DSM 13644, Pseudomonas aeuginosa ATCC 15442, Staphylococcus aureus ATCC 6538, Burkholderia …; assay: Preservative activity of a basic composition (10% PG in water, pH 7) with 2-phenoxyethanol against bacterial contamination (Example 2.1); conditions: 10% PG + 0.36% PE + 0.04% amide
Description: (§1) An aqueous composition of pH 7 comprising 10% by weight of propyleneglycol (PG) as organic solvent, 0.36% by weight of 2-phenoxyethanol (PE) as antimicrobial and 0.04% by weight of the amide listed in the below table was tested for its preserving activity against bacterial contamination (the weight percentages relate to the total weight of the composition). For this purpose, the samples were contaminated with a bacterial mix consisting of: • Escherichia coli DSM 1576 • Alcaligenes faecalis DSM 13644 • Pseudomonas aeuginosa ATCC 15442 • Staphylococcus aureus ATCC 6538 • Burkholderia cepacia DSM 7288 • Pseudomonas putida DSM 12735
The samples were inoculated with the bacterial mix at day 0, 7 and 14 to obtain 10E+06 to 10E+07 CFU/ml inoculation in the test samples (compositions listed in the below table) consisting of 10% by weight of propylene glycol in water and stored at 25° C. for 21 days.
CFU was determined before re-inoculation at days 7 and 14, and on day 21.

[2] = test system: bacterial mix: Escherichia coli DSM 1576, Alcaligenes faecalis DSM 13644, Pseudomonas aeruginosa ATCC 15442, Staphylococcus aureus ATCC 6538, Burkholderia …; assay: Preservative activity of a basic composition (10% PG in water, pH 7) with 1,2-benzisothiazol-3(2H)-one (BIT) against bacterial contamination (Example 2.3); conditions: day 7
Description: as §1, with “0.004%” for “0.36%”, “1,2-benzisothiazol-3(2H)-one (BIT)” for “2-phenoxyethanol (PE)”, “(the percentages are” for “(the”, “percent and” for “percentages”, “aeruginosa” for “aeuginosa”
The samples were inoculated with the bacterial mix at day 0 to obtain 10E+06 to 10E+07 CFU/ml inoculation in the test sample and stored at 25° C. for 7 days.
CFU was determined at day 7.
Any CFU value at day 7 (d7) obtained with a sample according to the invention containing BIT and amide (10% PG+0.004% BIT+Amide in water) lower than the respective value of the “comparative 2” example (10% by weight of propyleneglycol+0.004% by weight of 1,2-benzisothiazol-3(2H)-one (BIT) in water) indicates a better performance.

[3] = test system: fungal mix: Aspergillus brasiliensis DSM 1988, Rhodotorula mucilaginosa DSM 13621, Yarrowia lipolytica DSM 8218; assay: Preservative activity in a manual dishwashing composition (MDW, pH 7.1) with 1.0% 2-phenoxyethanol against fungal mix (Example 1.2); conditions: MDW + 1.0% PE, no amide (Comparative)
Description: A manual dish wash detergent (MDW) of pH 7.1 containing the following components was used:
(§2) The samples were contaminated with a fungal mix consisting of: • Aspergillus brasiliensis DSM 1988 • Rhodotorula mucilaginosa DSM 13621 • Yarrowia lipolytica DSM 8218
The samples were inoculated with the fungal mix at day 0 and 7 to obtain 1-3×10E+05 CFU/ml inoculation in the test sample consisting of the above-defined dish wash detergent MDW and stored at 25° C. for 21 days. CFU was determined before re-inoculation at day 7, and on days 14 and 21.
Any CFU value at d7, d14 or d21 obtained with a MDW sample of the invention containing 2-phenoxyethanol and amide (MDW+1.0% PE+x % of Amide) lower than the respective value of the comparative example (MDW+1.0% by weight of 2-phenoxyethanol) indicates a better performance of the inventive combination of 2-phenoxyethanol with the amide.

[4] = test system: bacterial mix: Escherichia coli DSM 1576, Alcaligenes faecalis DSM 13644, Pseudomonas aeuginosa ATCC 15442, Staphylococcus aureus ATCC 6538, Burkholderia …; assay: Preservative activity of a basic composition (10% PG in water, pH 7) with 2-phenoxyethanol against bacterial contamination (Example 2.1); conditions: 10% PG + 0.4% PE, no amide (Comparative 2)
[5] = test system: fungal mix: Aspergillus brasiliensis DSM 1988, Rhodotorula mucilaginosa DSM 13621, Yarrowia lipolytica DSM 8218; assay: Preservative activity in a diluted non-ionic surfactant solution (1% Lutensol ON 70, pH 7.0) with 2-phenoxyethanol against fungal mix (Example 1.6); conditions: Surfactant solution + 0.81% PE, no amide (Comparative 2)
Text: A surfactant solution in phosphate buffer of pH 7.0 containing 1% by weight of Lutensol ON 70, a C10-fatty alcohol ethoxylated with 7EO, was used.
as §2
The samples were inoculated with the fungal mix at day 0 and 7 to obtain 1-3×10E+05 CFU/ml inoculation in the test sample consisting of the above-defined surfactant solution and stored at 25° C. for 14 days. CFU was determined before re-inoculation at day 7, and on day 14.
Any CFU value at d7 and d14 obtained with a surfactant solution sample of the invention containing 2-phenoxyethanol and amide (surfactant solution+0.81% PE+0.09% of amide) lower than the respective value of the “comparative 2” example (surfactant solution+0.81% by weight of 2-phenoxyethanol) indicates a better performance of the inventive combination of 2-phenoxyethanol with the amide.

[6] = test system: bacterial mix: Escherichia coli DSM 1576, Alcaligenes faecalis DSM 13644, Pseudomonas aeruginosa ATCC 15442, Staphylococcus aureus ATCC 6538, Burkholderia …; assay: Preservative activity in a manual dishwashing composition (MDW, pH 7.1) with 1.0% 2-phenoxyethanol against bacterial mix (Example 2.5); conditions: MDW + 1.0% PE, no amide (Comparative)
Description: A manual dish wash detergent (MOW) of pH 7.1 containing the following components was used:
The samples were contaminated with a bacterial mix consisting of: • Escherichia coli DSM 1576 • Alcaligenes faecalis DSM 13644 • Pseudomonas aeruginosa ATCC 15442 • Staphylococcus aureus ATCC 6538 • Burkholderia cepacia DSM 7288 • Pseudomonas putida DSM 12735
The samples were inoculated with the bacterial mix at day 0 and 7 to obtain 10E+06 to 10E+07 CFU/ml inoculation in the test sample and stored at 25° C. for 21 days. CFU was determined before re-inoculation at day 7 and on day 21.
Any CFU value at day 7 (d7) or day 21 (d21) obtained with a sample according to the invention containing 2-phenoxyethanol and amide (MDW+1.0% PE+1.0% Amide) lower than the respective value of the comparative example (MDW+1% by weight of 2-phenoxyethanol) indicates a better performance.

Structure (SMILES) | d7 [CFU/ml] ([1]; day 7) | d14 [CFU/ml] ([1]; day 14) | d21 [CFU/ml] ([1]; day 21) | d7 [CFU/ml] ([2]; 10% PG + 0.004% BIT + 0.04% amide) | d7 [CFU/ml] ([2]; 10% PG + 0.1% amide, no BIT (Comparative 1)) | d7 [CFU/ml] ([3]; day 7) | d14 [CFU/ml] ([3]; day 14) | d21 [CFU/ml] ([3]; day 21) | d7 [CFU/ml] ([4]; day 7) | d14 [CFU/ml] ([4]; day 14) | d21 [CFU/ml] ([4]; day 21) | d7 [CFU/ml] ([5]; day 7) | d14 [CFU/ml] ([5]; day 14) | d7 [CFU/ml] ([6]; day 7) | d21 [CFU/ml] ([6]; day 21)
CCCCCCCCCC(=O)N(C)C [n-Decanoyl-N,N-dimethylamide] | <10 | <10 | <10 | 4,000 CFU/ml | >100,000 CFU/ml |  |  |  |  |  |  |  |  |  | 
OCCOc1ccccc1 [PE, 2-phenoxyethanol, reference compound] |  |  |  |  |  | 38,000 CFU/ml | 27,000 CFU/ml | 3,700 CFU/ml | 65,000 CFU/ml | >100,000 CFU/ml | >100,000 CFU/ml | 16,500 CFU/ml | 45,00 CFU/ml | 820 | 135

Source: US20250040539A1, “COMPOSITION COMPRISING AN ANTIMICROBIAL AGENT AND A CARBOXAMIDE” (BASF SE, priority 2021, published 2025)
